Results on 15 compounds are retold here after PMC12332554, “Novel Benzofuran-3-yl-methyl and Aliphatic Azacyclics: Design, Synthesis, and In Vitro and In Silico anti-Alzheimer Disease Activity Studies” (ACS Omega, 2025).

SMILES strings stand for the structures.

In experiment [1] the target is T1, AChE (Homo sapiens, UniProt P22303). Description: AChE inhibition, modified Ellman approach. It counts as biochemical. The settings on record: for inhibition at 1000 µM: 10^-3 M; for inhibition at 100 µM: 10^-4 M; for inhibition at 10 µM: 10^-5 M; for inhibition at 1 µM: 10^-6 M; for inhibition at 0.1 µM: 10^-7 M; for inhibition at 0.01 µM: 10^-8 M; for inhibition at 0.001 µM: 10^-9 M.
Description: (§1) According to the modified Ellman approach outlined in our earlier works − the AChE and BChE inhibitory activities of the obtained compounds were evaluated.

Another experiment has as its target human BChE (Homo sapiens, UniProt P06276). Description: biochemical. The settings on record: read-out: BChE % Inhibition.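 Further: inhibition of BChE determined with an adapted Ellman method.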
The target of experiment [2] is T2, Human β-Secretase (BACE-1) (Homo sapiens, UniProt P56817).
T2 construct: purchased K720-100
Description: Human β-Secretase (BACE-1) Inhibitor Screening Assay kit (fluorometric). The format is biochemical.
Description: The experimental procedure was based on the “Human β-Secretase (BACE-1) Inhibitor Screening Assay” kit (Human β-Secretase (BACE1) Inhibitor Screening Kit (Fluorometric)-Catalog no: K720-100) protocol based on the fluorometric method as performed previously.

For experiment [3], the target named is T1, AChE. As to the kind of experiment: Kinetic studies of AChE enzyme inhibition (Lineweaver–Burk, secondary plot). It counts as biochemical. The note with it: Lineweaver–Burk plots. As to the method:
Enzyme kinetics studies were conducted to determine the mechanism of inhibition of AChE using a procedure similar to that of the inhibition assay for cholinesterase enzymes. […] Linear Lineweaver–Burk graphs were used to estimate the type of inhibition of this compound. The velocity curves of the substrates were recorded in the absence and presence of compound 4m. […] In each case, the initial velocity measurements were obtained at different substrate (ATC) concentrations ranging from 600 to 18.75 μM.
For this purpose, this compound was prepared at different concentrations (IC50, 2xIC50 and IC50/2). Moreover, a substrate (ATC) was used at various concentrations (600, 300, 150, 75, 37.5, and 18.75 μM). The enzyme kinetics assay was carried out as in our previous. − Lineweaver–Burk plots were formed using Microsoft Office Excel 2013. The K i values of the compound were easily calculated from the second plot with a common intercept on the x-axis (corresponding to –K i).

Sequence of human BChE (P06276 29-602): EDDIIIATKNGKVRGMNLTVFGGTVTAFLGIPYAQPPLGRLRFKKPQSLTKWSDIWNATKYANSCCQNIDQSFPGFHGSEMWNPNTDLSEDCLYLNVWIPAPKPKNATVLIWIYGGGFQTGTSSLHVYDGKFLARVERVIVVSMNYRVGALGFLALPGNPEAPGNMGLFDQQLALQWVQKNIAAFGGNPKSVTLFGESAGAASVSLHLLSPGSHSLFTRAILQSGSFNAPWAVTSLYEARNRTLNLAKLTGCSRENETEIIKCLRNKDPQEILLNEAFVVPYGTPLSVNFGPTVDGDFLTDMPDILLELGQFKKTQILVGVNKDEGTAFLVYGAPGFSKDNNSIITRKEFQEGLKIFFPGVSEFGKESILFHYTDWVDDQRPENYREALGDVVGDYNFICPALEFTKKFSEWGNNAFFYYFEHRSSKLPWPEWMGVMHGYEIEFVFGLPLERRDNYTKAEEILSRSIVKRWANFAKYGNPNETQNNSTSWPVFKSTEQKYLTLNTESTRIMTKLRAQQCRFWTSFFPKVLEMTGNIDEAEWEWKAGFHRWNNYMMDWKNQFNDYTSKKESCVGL
T2 sequence (P56817 46-501): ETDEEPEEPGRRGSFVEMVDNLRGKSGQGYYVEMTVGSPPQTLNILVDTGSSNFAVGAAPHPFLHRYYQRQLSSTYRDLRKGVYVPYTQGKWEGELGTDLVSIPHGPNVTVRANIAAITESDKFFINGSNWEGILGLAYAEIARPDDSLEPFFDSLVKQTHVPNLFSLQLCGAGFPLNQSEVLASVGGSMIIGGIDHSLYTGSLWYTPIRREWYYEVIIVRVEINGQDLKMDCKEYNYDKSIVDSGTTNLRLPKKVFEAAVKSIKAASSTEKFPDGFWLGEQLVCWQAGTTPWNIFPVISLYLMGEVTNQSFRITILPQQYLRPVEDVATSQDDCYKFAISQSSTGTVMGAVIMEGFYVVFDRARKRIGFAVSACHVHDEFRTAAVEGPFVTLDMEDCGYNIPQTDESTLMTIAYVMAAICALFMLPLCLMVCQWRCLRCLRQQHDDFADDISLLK
T1 sequence (P22303 32-614): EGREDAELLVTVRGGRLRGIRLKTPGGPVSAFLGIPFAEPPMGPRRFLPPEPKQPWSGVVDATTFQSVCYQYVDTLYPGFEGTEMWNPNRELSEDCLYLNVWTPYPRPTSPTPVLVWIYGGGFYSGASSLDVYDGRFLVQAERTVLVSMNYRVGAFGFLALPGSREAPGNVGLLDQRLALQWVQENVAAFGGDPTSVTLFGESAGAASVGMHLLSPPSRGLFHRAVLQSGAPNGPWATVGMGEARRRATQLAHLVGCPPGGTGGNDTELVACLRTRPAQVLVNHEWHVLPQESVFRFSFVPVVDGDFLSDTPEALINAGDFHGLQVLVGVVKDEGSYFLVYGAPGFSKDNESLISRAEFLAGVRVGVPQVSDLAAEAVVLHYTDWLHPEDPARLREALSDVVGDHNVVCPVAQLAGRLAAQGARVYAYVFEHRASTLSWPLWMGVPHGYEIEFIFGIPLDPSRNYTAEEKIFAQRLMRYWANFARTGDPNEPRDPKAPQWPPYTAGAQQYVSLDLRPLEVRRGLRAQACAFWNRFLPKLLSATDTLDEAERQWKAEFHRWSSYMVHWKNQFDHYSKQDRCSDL
Description for human BChE: as §1

`O=C(c1ccccc1)c1oc2ccccc2c1CSC(=S)N1CCCCC1` [4a, (2-Benzoylbenzofuran-3-yl)methylpiperidine-1-dithiocarbamate]: the inhibition at 1000 µM was found to be 65.2 ± 1.02% at AChE [1] and 31.7 ± 0.89% at human BChE. Further, the inhibition at 100 µM turned out to be 40.7 ± 0.98% at AChE [1] and 25.8 ± 0.92% on human BChE.
Take `CC1CCCCN1C(=S)SCc1c(C(=O)c2ccccc2)oc2ccccc12` (stereo not drawn) [4b, (2-Benzoylbenzofuran-3-yl)methyl 2-Methylpiperidine-1-dithiocarbamate]: on AChE [1], the inhibition at 1000 µM came to 58.4 ± 1.9% and the inhibition at 100 µM came to 43.4 ± 1.62%. Besides, on human BChE, the inhibition at 100 µM is 27.3 ± 0.79% and the inhibition at 1000 µM was determined as 33.9 ± 0.9%.
Turning to `CC1CCCN(C(=S)SCc2c(C(=O)c3ccccc3)oc3ccccc23)C1` (stereo not drawn) [4c, (2-Benzoylbenzofuran-3-yl)methyl 3-Methylpiperidine-1-dithiocarbamate], on AChE [1], the inhibition at 1000 µM turned out to be 71.7 ± 1.1% and the inhibition at 100 µM worked out at 43 ± 0.89%. For the same compound, at human BChE, the inhibition at 100 µM amounted to 22.1 ± 0.84% and the inhibition at 1000 µM came to 30.4 ± 0.9%.
For `CC1CCN(C(=S)SCc2c(C(=O)c3ccccc3)oc3ccccc23)CC1` [4d, (2-Benzoylbenzofuran-3-yl)methyl 4-Methylpiperidine-1-dithiocarbamate], in that order: 63.8 ± 1.59%, 40.7 ± 0.97%, 24.4 ± 0.93% and 28.3 ± 0.81%.
In experiment [2], `O=C(c1ccccc1)c1oc2ccccc2c1CSC(=S)N1CCC(Cc2ccccc2)CC1` [4e, (2-Benzoylbenzofuran-3-yl)methyl 4-Benzylpiperidine-1-dithiocarbamate] showed an IC50 of 134 ± 6 nM. On AChE [1], this compound yielded an IC50 of 49 ± 2 nM, an inhibition at 1000 µM of 92.6 ± 1.38%, an inhibition at 100 µM of 88.6 ± 1.4% and an inhibition at 10 µM of 80.2 ± 1.11%. At AChE [1], 1 µM produced 74.3 ± 1.5% inhibition, testing at 0.1 µM gave an inhibition of 61.6 ± 0.92%, the inhibition at 0.01 µM came to 45.4 ± 0.72% and the inhibition at 0.001 µM came to 21.5 ± 0.86%. In addition, at human BChE, the inhibition at 100 µM turned out to be 29 ± 0.73% and the inhibition at 1000 µM was 35.6 ± 0.88%.
Regarding `O=C(c1ccccc1)c1oc2ccccc2c1CSC(=S)N1CCOCC1` [4f, (2-Benzoylbenzofuran-3-yl)methyl Morpholine-4-dithiocarbamate], the figures for the inhibition at 1000 µM at AChE [1] and at human BChE were 70.8 ± 1.12% and 28.4 ± 0.92%, respectively. For the same compound, the inhibition at 100 µM was determined as 41.3 ± 0.9% against AChE [1] and 20.7 ± 0.86% at human BChE.
Turning to `CN(C)CCCN1CCN(C(=S)SCc2c(C(=O)c3ccccc3)oc3ccccc23)CC1` [4g, (2-Benzoylbenzofuran-3-yl)methyl 4-(3-(Dimethylamino)propyl)piperazine-1-dithiocarbamate], the inhibition at 1000 µM at AChE [1] was 69 ± 0.97%; at human BChE it was 29.3 ± 0.89%. Also, the inhibition at 100 µM worked out at 39.1 ± 0.87% on AChE [1] and 21.7 ± 0.93% at human BChE.
In experiment [2], `O=C(c1ccccc1)c1oc2ccccc2c1CSC(=S)N1CCN(C(=O)c2ccco2)CC1` [4h, (2-Benzoylbenzofuran-3-yl)methyl 4-(Furan-2-carbonyl)piperazine-1-dithiocarbamate] registered an IC50 of 155 ± 7 nM. On AChE [1], inhibition was half-maximal at 54 ± 2 nM (IC50), the inhibition at 1000 µM came out at 90.7 ± 1.24%, testing at 100 µM gave an inhibition of 84.2 ± 1.33% and the inhibition at 10 µM worked out at 80.3 ± 1.1%. Further, on AChE [1], the inhibition at 1 µM amounted to 75.9 ± 1.32%, the inhibition at 0.1 µM worked out at 60.3 ± 0.97%, at 0.01 µM the inhibition was 45.7 ± 0.87% and the inhibition at 0.001 µM is 23 ± 0.78%. Further, at human BChE, the inhibition at 100 µM amounted to 28.3 ± 0.82% and the inhibition at 1000 µM turned out to be 36.8 ± 0.76%.
As for `O=C(c1ccccc1)c1oc2ccccc2c1CSC(=S)N1CCN(c2ncccn2)CC1` [4i, (2-Benzoylbenzofuran-3-yl)methyl 4-(Pyrimidine-2-yl)piperazine-1-dithiocarbamate], at AChE [1], the inhibition at 1000 µM came to 72.8 ± 1% and testing at 100 µM gave an inhibition of 43.6 ± 0.87%. Moreover, at human BChE, the inhibition at 100 µM came to 20.8 ± 0.88% and the inhibition at 1000 µM was 28.6 ± 0.82%.
`O=C(c1ccccc1)c1oc2ccccc2c1CSC(=S)N1CCN(c2ccccc2)CC1` [4j, (2-Benzoylbenzofuran-3-yl)methyl 4-Phenylpiperazine-1-dithiocarbamate]: the inhibition at 1000 µM against AChE [1] worked out at 75.6 ± 1.05%; at human BChE it was 31.6 ± 0.73%. Further, the inhibition at 100 µM at AChE [1] was determined as 41 ± 0.79%; at human BChE, 24.9 ± 0.92%.
In the case of `O=C(c1ccccc1)c1oc2ccccc2c1CSC(=S)N1CCN(c2ccc([N+](=O)[O-])cc2)CC1` [4k, (2-Benzoylbenzofuran-3-yl)methyl 4-(4-Nitrophenyl)piperazine-1-dithiocarbamate], on AChE [1], 1000 µM produced 69 ± 1% inhibition and at 100 µM the inhibition was 41.6 ± 0.95%. Further, on human BChE, the inhibition at 100 µM was 23.6 ± 0.83% and the inhibition at 1000 µM was found to be 30.4 ± 0.93%.
`COc1ccc(N2CCN(C(=S)SCc3c(C(=O)c4ccccc4)oc4ccccc34)CC2)cc1` [4l, (2-Benzoylbenzofuran-3-yl)methyl 4-(4-Methoxyphenyl)piperazine-1-dithiocarbamate]: on AChE [1], the inhibition at 1000 µM was 72.3 ± 1.1% and 100 µM produced 43.9 ± 0.98% inhibition. Further, on human BChE, the inhibition at 100 µM was 21.4 ± 0.87% and the inhibition at 1000 µM was determined as 30.5 ± 0.87%.
With `O=C(c1ccccc1)c1oc2ccccc2c1CSC(=S)N1CCN(CCO)CC1` [4m, (2-Benzoylbenzofuran-3-yl)methyl 4-(2-Hydroxyethyl)piperazine-1-dithiocarbamate], in experiment [2], half-maximal inhibition (IC50) was put at 84 ± 3 nM. At AChE [1], this compound displayed an IC50 of 29 ± 1 nM, an inhibition at 1000 µM of 94.3 ± 1.64%, an inhibition at 100 µM of 89.4 ± 1.5% and an inhibition at 10 µM of 80.2 ± 1.48%. On AChE [1], the inhibition at 1 µM was 75.4 ± 1.1%, the inhibition at 0.1 µM stood at 70.4 ± 1.21%, 0.01 µM produced 44.7 ± 0.97% inhibition and 0.001 µM produced 26.6 ± 0.72% inhibition. The “type of AChE inhibition” value at AChE [3] was “reversible and mixed-type inhibitor”. Also, on human BChE, the inhibition at 100 µM turned out to be 31.1 ± 0.73% and the inhibition at 1000 µM stood at 39.1 ± 0.76%.
Turning to `O=C(c1ccccc1)c1oc2ccccc2c1CSC(=S)N1CCN(c2ccc(Cl)cc2)CC1` [4n, (2-Benzoylbenzofuran-3-yl)methyl 4-(4-Chlorophenyl)piperazine-1-dithiocarbamate], on AChE [1], at 1000 µM the inhibition was 76.7 ± 1.26% and testing at 100 µM gave an inhibition of 46.8 ± 0.86%. For the same compound, at human BChE, the inhibition at 100 µM came out at 20.1 ± 0.78% and the inhibition at 1000 µM turned out to be 29.6 ± 0.86%.
`O=C(c1ccccc1)c1oc2ccccc2c1CSC(=S)N1CCN(c2ccc(F)cc2)CC1` [4o, (2-Benzoylbenzofuran-3-yl)methyl 4-(4-Fluorophenyl)piperazine-1-dithiocarbamate]: in experiment [2], the 50% inhibitory concentration (IC50) is over 10000 nM and the “β-secretase (BACE-1) IC50” value was “no significant inhibition”. On AChE [1], this compound registered an IC50 of 41 ± 2 nM, an inhibition at 1000 µM of 91.2 ± 1.57%, an inhibition at 100 µM of 83.6 ± 1.47% and an inhibition at 10 µM of 75 ± 1.67%. Moreover, on AChE [1], the inhibition at 1 µM is 65.8 ± 1.1%, at 0.1 µM the inhibition was 58.3 ± 1%, the inhibition at 0.01 µM turned out to be 48 ± 0.95% and at 0.001 µM the inhibition was 20.8 ± 0.74%. Also, at human BChE, the inhibition at 100 µM amounted to 30.3 ± 0.82% and the inhibition at 1000 µM is 37.5 ± 0.75%.
